Test results as given in patent US11202836B2, “PSMA targeted conjugate compounds and uses thereof” (CASE WESTERN RESERVE UNIVERSITY, priority 2018, dated 2021).
*1 amine or outer side, *2 acyl side, *3 side chain or, on linkers, in order; H or OH if unused. Where a SMILES comes first, the peptide text is derived from it. [ ]: non-standard residue; d: D form. γGlu = O=C(O)[C@H](CCC(=O)[*:2])N[*:1]; X1 = O=C(C1CCC(CN[*:1])CC1)[*:2]; CO = O=C([*:1])[*:2]; Ahx = NCCCCCC(=O)O

Assays:
PSMA = target: T1, PSMA (Homo sapiens, UniProt Q04609); experiment: Competitive binding assay against 3H-ZJ24 on PC3pip cells; settings: 10 nM 3H-ZJ24, read-out: IC50, competition binding to PSMA
T1 construct: expressed in transfected cells; host or cells: PC3pip cells (retrovirally transfected, from Dr. Michel Sadelain, MSKCC)
T1 sequence (Q04609 whole entry): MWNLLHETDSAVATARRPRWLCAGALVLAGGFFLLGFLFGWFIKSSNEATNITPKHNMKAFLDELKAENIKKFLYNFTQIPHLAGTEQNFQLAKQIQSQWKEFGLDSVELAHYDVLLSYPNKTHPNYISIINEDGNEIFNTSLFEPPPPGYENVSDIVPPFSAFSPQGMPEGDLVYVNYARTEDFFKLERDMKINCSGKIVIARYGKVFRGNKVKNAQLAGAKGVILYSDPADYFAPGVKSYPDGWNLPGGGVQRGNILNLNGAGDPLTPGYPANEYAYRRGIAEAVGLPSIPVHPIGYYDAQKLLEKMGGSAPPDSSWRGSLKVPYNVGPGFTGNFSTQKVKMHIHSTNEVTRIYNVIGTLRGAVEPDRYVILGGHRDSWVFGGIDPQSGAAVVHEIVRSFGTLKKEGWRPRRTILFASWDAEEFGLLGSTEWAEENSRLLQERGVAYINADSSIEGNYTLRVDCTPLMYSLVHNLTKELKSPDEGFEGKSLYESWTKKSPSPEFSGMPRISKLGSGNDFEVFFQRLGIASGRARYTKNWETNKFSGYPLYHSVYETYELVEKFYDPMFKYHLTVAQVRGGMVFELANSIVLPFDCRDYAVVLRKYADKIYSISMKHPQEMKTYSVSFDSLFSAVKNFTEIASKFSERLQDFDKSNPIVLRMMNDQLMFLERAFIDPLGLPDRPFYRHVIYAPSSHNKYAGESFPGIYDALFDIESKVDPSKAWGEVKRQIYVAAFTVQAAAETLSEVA
Procedure: The assay was carried as previously reported by incubation PC3pip cells with different concentrations of drug conjugates in the presence of 10 nM N—[N—[(S)-1,3-dicarboxypropyl]carbamoyl]-S-[^3H]-methyl-L-cysteine (^3H-ZJ24) (GE Healthcare Life Sciences, Pittsburgh, Pa.). Radioactivity of cell pellet was counted by scintillation counter. The concentration required to inhibit 50% of binding was determined (IC50) by GraphPad Prism 3.0.

PC3pip cells = experiment: Example 1 cytotoxicity assay (Dojindo CCK8), PSMA-expressing cells; assay type: cell-based; settings: continuous 48 hours
Procedure: (§1) PC3Pip and PC3Flu cells (2000 cells/100 μL/well) were plated in 96 well plates and rested for 24 hours to adhere to the plate surface. To each well, we added 10 μL of an 11× concentrated solution of doxorubicin or conjugate. Each drug dose was tested in groups of six wells. Dojindo CCK8 assays were used to determine relative cell survival of treated wells compared with untreated controls. This is a […] assay for determination of cell viability and proliferation. A water-soluble tetrazolium salt, WST-8, is reduced by dehydrogenase activity in the cell which produces an orange dye with relative amounts quantified by absorbance. Briefly, 10 μL assay solution was added to each well, the plate was left to incubate while orange color was produced, the absorption of the solution in the plate was read at 450 nm, and the cell viabilities were calculated.

PC3Pip and PC3Flu cells = experiment: Example 1 in vitro cellular uptake (doxorubicin fluorescence microscopy); assay type: cell-based; settings: 1 μM, 90 minutes or 48 hours
Procedure: PC3Pip and PC3flu cells (1.5×10^5) were plated on coverslips and allowed to adhere for 36-48 hours. Cells were incubated in 1 μM of free doxorubicin or the various PSMA-1-Doxorubicin conjugates in RPMI media. Similar experiments are reported widely in the literature, with doses usually in the μM range because of doxorubicin's relatively dim fluorescence, at least compared with some of the commercially available dyes used in our lab. This dose was chosen to balance that relatively dim fluorescence with a goal of attempting to maintain selectivity.
Next, cells were washed 3 times with RPMI media, fixed with 4% paraformaldehyde for 10 minutes, and washed twice with phosphate-buffered saline (PBS). The cells were counterstained with DAPI nuclear staining, mounted on microscope slides with a 50% mounting solution mixture of PBS and glycol, and the coverslips were sealed with clear nail polish. Fluorescent imaging was performed with Leica DM4000B fluorescence microscopy. DAPI imaging used the Blue filter with excitation/emission at 410/455 nm. Doxorubicin was imaged with the Texas Red filter with Ex/Em 587/612 nm.

PC3flu cells = experiment: Example 1 cytotoxicity assay (Dojindo CCK8), PSMA-negative cells; assay type: cell-based; settings: continuous 48 hours
Procedure: as §1

PC3Pip flank tumors = experiment: Example 1 mouse PC3Pip flank tumor xenograft study; assay type: in vivo, mice; settings: 2 mg/kg doxorubicin or molar equivalent, day 0, 7, 14, i.v.
Procedure: All animal procedures were performed according to the protocols approved by the Institutional Animal Care and Use Committee (IACUC). Our approval is Case Western Reserve University IACUC #2015-0033. Athymic nude mice aged 6-8 weeks were implanted subcutaneously with 1×10^6 PC3Pip cells in 100 μL Matrigel on the right flank. Tumors were allowed to grow for two weeks. Mice were then treated with three doses of free doxorubicin or PSMA-1-MMCCH-Dox in PBS on day 0, 7, and 14 of the study via tail vein injection. Dose used was 2 mg/kg doxorubicin, or the equivalent molar dosage of the PSMA-targeted prodrug. Tumor dimensions were measured using calipers twice per week, and mouse weights were recorded on these days, as well. The study duration was 21 days.

| Structure (SMILES) | IC50 (PSMA) [nM] | growth inhibition of PC3Pip cells (PC3pip cells) | subcellular pattern of doxorubicin signal (PC3Pip and PC3Flu cells) | uptake in PC3Pip compared with PC3Flu cells (PC3Pip and PC3Flu cells) | growth inhibition of PC3Flu cells (PC3flu cells) | tumor growth (PC3Pip flank tumors) | weight loss over the duration of the study (PC3Pip flank tumors; 21 days) [%] |
| --- | --- | --- | --- | --- | --- | --- | --- |
| NCCCC[C@H](NC(=O)[C@H](CCC(=O)O)NC(=O)[C@H](CCC(=O)O)NC(=O)[C@H](CCC(=O)O)NC(=O)CCCCCNC(=O)C1CCC(CNC(=O)CC[C@H](NC(=O)N[C@@H](CCC(=O)O)C(=O)O)C(=O)O)CC1)C(N)=O (some centres unmarked) [PSMA-1] ({Glu-CO-γGlu}-[X1][Ahx]EEEK-NH2; C-terminus assumed) | 2.3 | – | – | – | – | – | – |
| CSC[C@H](NC(=O)N[C@@H](CCC(=O)O)C(=O)O)C(=O)O [ZJ24, reference compound] | 11.7 | – | – | – | – | – | – |
| COc1cccc2c1C(=O)c1c(O)c3c(c(O)c1C2=O)C[C@@](O)(C(=O)CO)C[C@@H]3O[C@H]1C[C@H](N)[C@H](O)[C@H](C)O1 [doxorubicin] | – | potent, equal growth inhibition | primarily in the nucleus | equally seen in PC3Pip and PC3Flu cell lines | potent, equal growth inhibition | more rapid tumor growth | 17.3 |
